Reference: patent US20220017478A1, “2-BENZOYLAMINOBENZAMIDE DERIVATIVES AS BCL-3 INHIBITORS” (University College Cardiff Consultants Limited, priority 2013, published 2022)
Read-outs that look alike come from different tables or passages of the source.

Experiments:
[1] = Solubility in commonly used solvents and PBS; type: physicochemical
Experimental: We established that the solubility of Compound 1a in most commonly used solvents is very low (Table 2) which represents an issue for biological evaluation. Therefore a hydrochloric salt of Compound 1a was synthesised and the solubility was analyzed. The obtained salt had improved solubility in water and methanol (Table 2), however it was not soluble (<0.1 g/100 ml) in Phosphate Buffered Saline (PBS). PBS is a water-based salt solution containing sodium chloride, sodium phosphate, potassium chloride and potassium phosphate, while the buffer's phosphate groups help to maintain a constant pH. PBS is non-toxic and is commonly used as an isotonic buffered solution for cell-based assays and animal studies.

[2] = Cell Titre Blue viability assay, SKBR3; type: cell-based, human; settings: human, SKBR3 cells; SKBR3, 1 mM, 24 hrs; read-out: cell viability compared to DMSO control (100%)
Experimental: (§1) The viability of cells at experimental endpoints for particular assays was determined using the Cell Titre Blue reagent (Promega, Southampton, UK). This reagent measures the cellular metabolic activity using resazurin as an indicator dye. Viable cells, therefore metabolically active, will reduce resazurin into highly fluorescent resofurin. The resulting fluorescence levels are measured and indicate cell viability.
(§2) Cells were plated at low confluency into 96 well plates in 100 μl of complete growth media in triplicates and were incubated at 37° C. in 5% CO2 for the desired test exposure period. For each 100 μl of media in 96 well plates, 20 μl Cell Titre Blue reagent was added followed by incubation for an hour at 37° C. in 5% CO2. Fluorescence was then measured by setting excitation/emission wavelengths to 560/590 nm on a Flurostar Optima plate reader (BMG tabtech, Bucks, UK).
(§3) To compare the toxicity in tumorigenic as well as in non-tumorigenic breast cancer cells, we selected MCF-10A as a non-tumorigenic human breast cancer cell line and MDA-MB-231 and SKBR3 as cell models of tumorigenic human breast cancer cell line.
(§4) Cell toxicity was evaluated using the Cell Titre Blue viability assay over a range of molarities for 24 hrs.

SKBR3 cells = assay: Cell Titre Blue viability assay, SKBR3; type: cell-based, human; settings: Homo sapiens, SK-BR-3; SKBR3, 24 hrs, extrapolated with GraphPad; read-out: IC50 cell viability, extrapolated from the dose-response curve
Experimental: as §1, §2, §3, §4

MDA-MB-231 cells = assay: Cell Titre Blue viability assay, MDA-MB-231; settings: Homo sapiens, MDA-MB-231, 24 h, read-out: IC50 cell viability, extrapolated from the dose-response curve
Experimental: as §1, §2, §4
Selected compounds were dissolved in DMSO and diluted to a highest concentration of 10 μM (0.1% DMSO). In all assays, a DMSO control was always used. Selected compounds were tested for cell toxicity in HEK-293 and MDA-MB-231 cells before being used in cell-based assays. Cell toxicity was evaluated using the Cell Titre Blue viability assay over a range of molarities for 24 hrs

[3] = Cell Titre Blue viability assay, HEK-293; type: cell-based; settings: human, HEK-293 cells, HEK-293, 10 μM, vs DMSO
Description: In all assays, a DMSO control was always used.

[4] = tested on: MDA-MB-231 cells overexpressing Bcl-3; assay: Boyden chamber cell motility assay; type: cell-based, human; settings: for IC50: Homo sapiens
Experimental: The migratory or invasive capacity of human mammary cancer cell lines was assessed by the Boyden chamber assay. Cells were seeded in low serum media in a chamber with porous membrane (transparent polyethylene terephthalate (PET) membranes with 8 μm pores) as a solid support for motility assays or with a porous membrane coated with Matrigel Basement Membrane Matrix (BD BioCoat Growth factor reduced invasion chambers) for invasion assay. The cell insert was placed into a well with complete growth media, therefore cells are stimulated by a serum gradient to migrate or invade across the membrane through pores.
Total of 750 μl of complete growth media containing 10% of serum was added to appropriate wells of a 24 well cell culture insert companion plate (BD Biosciences, Oxford, UK). A cell culture insert (BD Biosciences, Oxford, UK) was then carefully placed into each well of the insert companion plate using tweezers. Cells were detached from tissue culture plates using 0.25% w/v Trypsin/EDTA (Invitrogen) and centrifuged at 13000 rpm for 5 min. Cells were washed twice in serum free media by resuspension and centrifugation. The appropriate number of cells (2×10^5 cells/ml for MDA-MB-231 cells) was resuspended in normal growth media containing only 0.10% serum. 350 μl of the cell suspension was added to the appropriate upper chambers of the cell culture inserts and plates were incubated for 24 hrs at 37° C. and 5% CO2.
After incubation, cells on membranes were fixed by replacing the media in the top and bottom sections of the chamber with 70% ice-cold ethanol (Fisher Scientific). Plates were incubated at −20° C. for at least an hour. After fixation, inserts were immersed in a tap water using tweezers to ensure all ethanol was removed. A moistened cotton wool bud was then used to mechanically remove all cells fixed on the upper side of the membranes. Cells were stained by individually immersing the inserts into filtered Harris' Haematoxylin (Sigma, Dorset, UK) for 1 min. Following this, inserts were washed in a beaker of tap water to remove the dye and immersed in 0.5% filtered Eosin (Sigma, Dorset, UK) for 2 min. Stained inserts were then washed again in a tap water.
Glycerol Gelatin (Sigma, Dorset, UK) was heated in a beaker of boiling water and once liquefied, a drop was placed onto an appropriately labelled microscope slide (R. A. Lamb, Loughborough, UK). Membranes were cut out of the insert and transferred onto the corresponding slide with tweezers. Glycerol Gelatin was added to the top of the membranes and a cover slip was placed on the slide under firm pressure. Mounted slides were left to air dry before being analyzed.
We therefore generated a dose response curve to determine an IC50 in this assay. MDA-MB-231 cells overexpressing Bcl-3 were cultivated with Compound 1a and DMSO control over a range of molarities for 24 hrs before being seeded onto Boyden migration chambers. The constant number of live cells present during this assay across samples was monitored by cell count.
Therefore we wanted to establish whether designed analogues have similar or improved ability to suppress cell migration. MDA-MB-231 Bcl-3 over-expressing cells were cultivated with selected analogues (1f, 2a, 2c, 3a) and DMSO control over a range of molarities for 24 hrs before being seeded onto the Boyden motility chambers. Migrated cells were visualized and counted after 24 hrs. The dose response curves were generated using GraphPad software (FIG. 9). The constant number of live cells present during this assay across samples was monitored by cell count.

[5] = Cell Titre Blue viability assay, MCF-10A; type: cell-based, human; settings: human, MCF-10A cells, 1 mM, read-out: cell viability compared to DMSO control (100%)
Experimental: as §1, §2, §3, §4

MCF-10A cells = assay: Cell Titre Blue viability assay, MCF-10A; type: cell-based, human; settings: Homo sapiens, 24 hrs, extrapolated with GraphPad, read-out: IC50 cell viability, extrapolated from the dose-response curve
Experimental: as §1, §2, §3, §4

[6] = MDA-MB-231, Table 3, read-out: Cell motility assay (μM) IC50
[7] = MDA-MB-231 overexpressing Bcl-3, 24 hrs pre-treatment, 24 hrs migration, read-out: IC50 cell motility (Boyden chamber)

| Solubility ([1]; DMSO) | Solubility ([1]; Dichloromethane) | Solubility ([1]; Diethyl ether) | Solubility ([1]; Ethanol) | Solubility ([1]; Ethyl acetate) | Solubility ([1]; Methanol) | Solubility ([1]; water, read-out: Solubility) | IC50 (SKBR3 cells) | IC50 (MDA-MB-231 cells) | IC50 [4, 6] | IC50 [4, 7] | IC50 ([4]; MDA-MB-231 overexpressing Bcl-3, read-out: IC50 cell motility (Boyden chamber)) | Structure (SMILES) | viability at 24 h, 1 mM [2] | viability at 24 h, 10 µM [3] | migration ability ([4]; MDA-MB-231 cells, 10 μM) | viability at 24 h, 1000 µM [5] | IC50 (MCF-10A cells) | cell migration ([4]; 10 nM concentration) |
| --- | --- | --- | --- | --- | --- | --- | --- | --- | --- | --- | --- | --- | --- | --- | --- | --- | --- | --- |
| 3.71 g/100 ml | 2.91 g/100 ml | 0.09 g/100 ml | 0.09 g/100 ml | 0.34 g/100 ml | 0.20 g/100 ml | < 100 µg/mL | 1370 µM | 2700 µM | 0.31 µM | 0.31 µM |  | O=C(Nc1ccccc1C(=O)NCCN1CCOCC1)c1ccccc1F [Compound 1a, 2-[(2-fluorobenzoyl)amino]-N-(2-morpholin-4-ylethyl)benzamide] | 57% | > 70% | significantly suppressed migration ability | 96% | 14900 µM |  |
|  |  |  |  |  |  |  |  |  | 0.0289 µM | 0.0289 µM |  | COc1ccc(C(=O)Nc2ccccc2C(=O)NCCN2CCOCC2)cc1 [Compound 1f, 2-[(4-methoxybenzoyl)amino]-N-(2-morpholin-4-ylethyl)benzamide] |  | > 70% |  |  |  | below 50% |
|  |  |  |  |  |  |  |  |  | 1.33 µM |  | 1.33 µM | O=C(Nc1ccccc1C(=O)NCCCN1CCOCC1)c1ccccc1F [Compound 2a] |  | > 70% |  |  |  |  |
|  |  |  |  |  |  |  |  |  | 0.9 µM | 0.9 µM |  | COc1cccc(C(=O)NCCN2CCOCC2)c1NC(=O)c1ccccc1F [Compound 3a, 2-[(2-fluorobenzoyl)amino]-3-methoxy-N-(2-morpholin-4-ylethyl) benzamide] |  | > 70% |  |  |  |  |
